Experimental data taken from US8324250B2 (Hoffmann-La Roche Inc., priority 2009, dated 2012).
pKi: −log10 of the molar value.

Target: T1, recombinant human NK3 receptor (Homo sapiens, UniProt P29371)
T1 construct: expressed in transfected cells; host or cells: HEK293 cells (transient expression), membranes
T1 sequence (P29371 1-465): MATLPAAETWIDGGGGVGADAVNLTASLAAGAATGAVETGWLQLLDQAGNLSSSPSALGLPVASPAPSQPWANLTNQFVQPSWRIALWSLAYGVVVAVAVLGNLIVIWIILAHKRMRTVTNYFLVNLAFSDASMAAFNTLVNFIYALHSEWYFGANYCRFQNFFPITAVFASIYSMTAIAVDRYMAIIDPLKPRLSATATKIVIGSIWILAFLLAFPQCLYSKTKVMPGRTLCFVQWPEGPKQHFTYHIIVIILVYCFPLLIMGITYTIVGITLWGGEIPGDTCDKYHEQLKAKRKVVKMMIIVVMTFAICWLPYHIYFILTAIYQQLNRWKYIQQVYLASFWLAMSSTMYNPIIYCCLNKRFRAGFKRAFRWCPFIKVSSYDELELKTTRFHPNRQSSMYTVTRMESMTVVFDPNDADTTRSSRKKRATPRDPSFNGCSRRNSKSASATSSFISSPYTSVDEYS
Assay: [3H]SR142801 competition binding assay
Settings: membranes from HEK293 cells transiently expressing recombinant human NK3 receptor; [3H]SR142801 radioligand; 75 min at RT; Ki by Cheng-Prussoff; read-out: Data Ki (hNK-3 receptor affinity)
How it was run: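 Membranes from HEK293 cells transiently expressing the receptor, 5 μg protein/well, in 50 mM Tris-HCl pH 7.4 with 4 mM MnCl2, 1 μM phosphoramidon, 0.1% BSA; nonspecific binding defined with 10 μM SB222200. Filtration and scintillation counting; IC50 from Hill fit, Ki by Cheng-Prussoff using saturation-derived KD, duplicates.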

pKi	SMILES
8.28	C[C@H](NC(=O)C1(c2ccccc2)CCN(C(=O)N2CCN(c3ccc(F)cc3)CC2)CC1)C1CCCCC1 [Example 233, 1-[4-(4-Fluoro-phenyl)-piperazine-1-carbonyl]-4-phenyl-piperidine-4-carboxylic acid ((S)-1-cyclohexyl-ethyl)-amide]
7.96	Cc1noc(-c2ccc(C(=O)N3CCC(C(=O)NC(c4ccc(F)cc4)C(C)C)(c4ccc(F)cc4)CC3)cc2)n1 (centres unmarked) [Example 158, 4-(4-Fluoro-phenyl)-1-[4-(3-methyl-[1,2,4]oxadiazol-5-yl)-benzoyl]-piperidine-4-carboxylic acid [1-(4-fluoro-phenyl)-2-methyl-propyl]-amide]
8.00	C[C@H](NC(=O)C1(c2ccccc2)CCN(C(=O)N2CCC(N3CCSCC3)CC2)CC1)c1ccc(F)cc1 [Example 222, 4-Phenyl-1-(4-thiomorpholin-4-yl-piperidine-1-carbonyl)-piperidine-4-carboxylic acid [(S)-1-(4-fluoro-phenyl)-ethyl]-amide]
7.44	Cc1nc(-c2ccc(C(=O)N3CCC(C(=O)N[C@@H](C)c4ccc(F)cc4)(c4ccc(F)cc4)CC3)cc2)no1 [Example 168, 4-(4-Fluoro-phenyl)-1-[4-(5-methyl-[1,2,4]oxadiazol-3-yl)-benzoyl]-piperidine-4-carboxylic acid [(S)-1-(4-fluoro-phenyl)-ethyl]-amide]
7.46	Cc1ccccc1N1CCN(C(=O)N2CCC(C(=O)N[C@@H](C)c3ccccc3)(c3ccccc3)CC2)CC1 [Example 229, 4-Phenyl-1-(4-o-tolyl-piperazine-1-carbonyl)-piperidine-4-carboxylic acid ((S)-1-phenyl-ethyl)-amide]
8.59	Cc1noc(-c2ccc(C(=O)N3CCC(C(=O)N[C@@H](C)C4CCCCC4)(c4ccc(F)cc4)CC3)cc2)n1 [Example 90]
7.57	O=C(c1ccc(-c2ccc(F)cc2)cc1)N1CCC(C(=O)NC2(c3ccc(F)cc3)CC2)(c2ccc(F)cc2)CC1 [Example 135, 1-(4′-Fluoro-biphenyl-4-carbonyl)-4-(4-fluoro-phenyl)-piperidine-4-carboxylic acid [1-(4-fluoro-phenyl)-cyclopropyl]-amide]
7.40	Cc1noc(-c2ccc(C(=O)N3CCC(C(=O)N[C@@H](C)c4ccc(F)cc4)(C4CCCC4)CC3)cc2)n1 [Example 111, 4- Cyclopentyl-1-[4-(3-methyl-[1,2,4]oxa-diazol-5-yl)-benzoyl]-piperidine-4-carboxylic acid [(S)-1-(4-fluoro-phenyl)-ethyl]-amide]
7.25	CN(Cc1ccc(F)cc1)C(=O)C1(c2ccccc2)CCN(C(=O)c2ccc(N3CCS(=O)(=O)CC3)cc2)CC1 [Example 106, 1-[4-(1,1-Dioxo-1λ6-thiomor-pholin-4-yl)-benzoyl]-4-phenyl-piperidine-4-carboxylic acid (4-fluoro-benzyl)-methyl-amide]
7.62	C[C@H](NC(=O)C1(c2ccccc2)CCN(C(=O)c2cnc(-c3ccccc3)nc2)CC1)c1ccccc1 [Example 52, 4-Phenyl-1-(2-phenyl-pyrimidine-5-carbonyl)-piperidine-4-carboxylic acid ((S)-1-phenyl-ethyl)-amide]
7.63	C[C@H](NC(=O)C1(c2ccccc2)CCN(C(=O)c2ccc(-c3cccnc3)cc2)CC1)c1ccccc1 [Example 53, 4-Phenyl-1-(4-pyridin-3-yl-benzoyl)-piperidine-4-carboxylic acid ((S)-1-phenyl-ethyl)-amide]
7.07	C[C@H](NC(=O)C1(c2ccccc2)CCN(C(=O)c2ccc(N3CCOCC3)cc2)CC1)c1ccccc1 [Example 8, 1-(4-Morpholin-4-yl-benzoyl)-4-phenyl-piperidine-4-carboxylic acid ((S)-l-phenyl-ethyl)-amide]
9.00	Cc1noc(-c2ccc(C(=O)N3CCC(C(=O)N[C@@H](C)C4CCCCC4)(c4ccccc4)CC3)cc2)n1 [Example 74]
7.04	CCN(NC(=O)C1(c2ccc(F)cc2)CCN(C(=O)c2ccc(-c3nc(C)no3)cc2)CC1)c1ccc(F)cc1 [Example 160, 4-(4-Fluoro-phenyl)-1-[4-(3-methyl-[1,2,4]oxodiazol-5-yl)-benzoyl]-piperidine-4-carboxylic acid N′-ethyl-#N!′-(4-fluoro-phenyl)-hydrazide]
7.20	C[C@H](NC(=O)C1(c2ccccc2)CCN(C(=O)c2cc(-c3ccc(F)cc3)no2)CC1)c1ccccc1 [Example 62, 1-[3-(4-Fluoro-phenyl)-isoxazole-5-carbonyl]-4-phenyl-piperidine-4-carboxylic acid ((S)-1-phenyl-ethyl)-amide]
8.55	CC[C@H](NC(=O)C1(c2ccccc2)CCN(C(=O)c2ccc(N3CCS(=O)(=O)CC3)cc2)CC1)c1ccccc1 [Example 84, 1-[4-(1,1-Dioxo-1λ6-thiomor-pholin-4-yl)-benzoyl]-4-phenyl-piperidine-4-carboxylic acid ((S)-1-phenyl-propyl)-amide]
8.49	Cc1noc(-c2ccc(C(=O)N3CCC(C(=O)N[C@@H](C)c4ccccc4)(c4ccccc4)CC3)cc2)n1 [Example 43, 1-[4-(3-Methyl-[1,2,4]oxa-diazol-5-yl)-benzoyl]-4-phenyl-piperidine 4-carboxylic acid ((S)-1-phenyl-ethyl)-amide]
8.39	C[C@H](NC(=O)C1(c2ccccc2)CCN(C(=O)c2ccc(N3CCS(=O)(=O)CC3)cc2)CC1)C1CCCCC1 [Example 80, 1-[4-(1,1 - Dioxo-1λ6-thiomorpholin-4-yl)-benzoyl]-4-phenyl-piperidine-4-carboxylic acid ((S)-1-cyclohexyl-ethyl)-amide]
7.12	C[C@H](NC(=O)C1(c2ccccc2)CCN(C(=O)c2csc(-c3ccncc3)n2)CC1)c1ccccc1 [Example 27, 4-Phenyl-1-(2-pyridin-4-yl-thiazole-4-carbonyl)-piperidine-4-carboxylic acid ((S)-1-phenyl-ethyl)-amide]
7.67	C[C@H](NC(=O)C1(c2ccccc2)CCN(C(=O)c2ccc(-c3ccccc3)cn2)CC1)c1ccccc1 [Example 38, 4-Phenyl-1-(5-phenyl-pyridine-2-carbonyl)-piperidine-4-carboxylic acid ((S)-1-phenyl-ethyl)-amide]
7.82	N#Cc1ccc(N2CCC(C(=O)N3CCC(C(=O)N[C@H](c4cccc(F)c4)C4CC4)(c4ccc(F)cc4)CC3)CC2)nc1 [Example 195, 1-(5′-Cyano-3,4,5,6-tetrahydro-2H-[1,2′]bipyridinyl-4-carbonyl)-4-(4-fluoro-phenyl)-piperidine-4-carboxylic acid [(S)-cyclopropyl-(3-fluoro-phenyl)-methyl]-amide]
7.47	C[C@H](NC(=O)C1(c2ccccc2)CCN(C(=O)c2ccc(N3CCS(=O)(=O)CC3)nc2)CC1)c1ccccc1 [Example 98, 1-[6-(1,1-Dioxo-1λ6-thiomor-pholin-4-yl)-pyridine-3-carbonyl]-4-phenyl-piperidine-4-carboxylic acid ((S)-1-phenyl-ethyl)-amide]
7.77	O=C(c1ccc(-c2ccc(F)cc2)cc1)N1CCC(C(=O)NNc2ccc(F)c(F)c2)(c2ccc(F)cc2)CC1 [Example 191, 1-(4′-Fluoro-biphenyl-4-carbonyl)-4-(4-fluoro-phenyl)-piperidine-4-carboxylic acid N′-(3,4-difluoro-phenyl)-hydrazide]
